Experimental data: publication PMC4897634, “Design of an α-helical antimicrobial peptide with improved cell-selective and potent anti-biofilm activity” (Scientific Reports, 2016)
Where no end group is shown, it is not given here.

Assays:
[1] = system: Staphylococcus aureus (1.8721); test: Antimicrobial activity, broth microdilution MIC; type: cell-based; settings: modified CLSI broth microdilution, LB medium, 1 × 10^6 CFU/ml, 37 °C, 18 to 20 hours, absorbance 600 nm
Method: (§1) The antibacterial activities of the peptides against three Gram-negative bacteria and three Gram-positive bacteria strains were measured using a modified version of the Clinical Laboratory and Standards Institute (CLSI) broth microdilution method as described previously. Three Gram-negative bacteria, Escherichia coli (1.8732), Pseudomonas aeruginosa (1.2421), and Klebsiella pneumonia (1.1736), and three Gram-positive bacteria, Staphylococcus aureus (1.8721), Staphylococcus epidermidis (1.4260), and Bacillus subtilis (1.3376), were purchased from the China General Microbiological Culture Collection Centre (CGMCC). Briefly, bacteria were grown in liquid LB medium (tryptone, 10 g/L, yeast extract, 5 g/L and NaCl, 10 g/L) at 37 °C to mid-log phase, and the bacteria were diluted to 1 × 10^6 colony-forming units (CFU)/ml. The peptides were serially diluted with phosphate-buffered saline (PBS), and 50 μl diluted peptides were added to 50 μl of the bacterial suspension in 96-well plate (Corning Inc., Lowell, MA, USA). After incubation at 37 °C for 18 to 20 hours, the absorbance of each well was recorded using a multi-well microplate reader (SpectraMax M5; Molecular Devices, Sunnyvale, CA, USA) at 600 nm. The lowest concentration at which the peptide inhibited complete growth of the bacteria was taken as the minimal inhibitory concentration (MIC).

[2] = system: Klebsiella pneumonia (1.1736); test: Antimicrobial activity, broth microdilution MIC; type: cell-based; settings: modified CLSI broth microdilution, LB medium, 1 × 10^6 CFU/ml, 37 °C, 18 to 20 hours, absorbance 600 nm
Method: as §1

[3] = system: Bacillus subtilis (1.3376); test: Antimicrobial activity, broth microdilution MIC; type: cell-based; settings: modified CLSI broth microdilution, LB medium, 1 × 10^6 CFU/ml, 37 °C, 18 to 20 hours, absorbance 600 nm
Method: as §1

[4] = system: Escherichia coli (1.8732); test: Antimicrobial activity, broth microdilution MIC; type: cell-based; settings: modified CLSI broth microdilution, LB medium, 1 × 10^6 CFU/ml, 37 °C, 18 to 20 hours, absorbance 600 nm
Method: as §1

[5] = system: Staphylococcus epidermidis (1.4260); test: Antimicrobial activity, broth microdilution MIC; type: cell-based; settings: modified CLSI broth microdilution, LB medium, 1 × 10^6 CFU/ml, 37 °C, 18 to 20 hours, absorbance 600 nm
Method: as §1

[6] = system: Pseudomonas aeruginosa (1.2421); test: Antimicrobial activity, broth microdilution MIC; type: cell-based; settings: modified CLSI broth microdilution, LB medium, 1 × 10^6 CFU/ml, 37 °C, 18 to 20 hours, absorbance 600 nm
Method: as §1

Gram-negative bacteria = type: cell-based, E. coli, P. aeruginosa, K. pneumoniae; settings: ratio of MHC to GM, Gram-negative bacteria
Method: (§2) The antimicrobial activities of the peptides, indicated by the minimum inhibitory concentrations (MIC), were determined against a range of Gram-negative (Table 3) and Gram-positive bacterial strains (Table 4). The geometric mean of MIC values (GM) from the three strains was calculated to provide an overall evaluation of antimicrobial activity.
(§3) The therapeutic index (TI) is defined as the ratio of the minimum haemolytic concentration (MHC) of peptides to the GM of peptides, and this value was used to evaluate cell selectivity of peptides towards the negatively charged region of bacterial cell membranes over the zwitterionic mammalian cell membranes.
as §1

Acinetobacter baumannii = test: MIC against biofilm-producing clinical isolate; type: cell-based; settings: biofilm-producing strain, broth microdilution as for the other strains
Method: The antibacterial activities of the peptides against three Gram-negative bacteria and three Gram-positive bacteria strains were measured using a modified version of the Clinical Laboratory and Standards Institute (CLSI) broth microdilution method as described previously. Three Gram-negative bacteria, Escherichia coli (1.8732), Pseudomonas aeruginosa (1.2421), and Klebsiella pneumonia (1.1736), and three Gram-positive bacteria, Staphylococcus aureus (1.8721), Staphylococcus epidermidis (1.4260), and Bacillus subtilis (1.3376), were purchased from the China General Microbiological Culture Collection Centre (CGMCC). […] After incubation at 37 °C for 18 to 20 hours, the absorbance of each well was recorded using a multi-well microplate reader (SpectraMax M5; Molecular Devices, Sunnyvale, CA, USA) at 600 nm. […]
Biofilm attachment assays against Acinetobacter baumannii were performed using a previously described method with some modifications. […] The MICs of AMPs against A. baumannii were evaluated as described above. […] The wells were allowed to dry, and the crystal violet-stained well was re-solubilized with 200 μl of 95% ethanol and shaken for 10 min followed by measurement of the absorbance at 595 nm on a microplate reader (SpectraMax M5; Molecular Devices, Sunnyvale, CA, USA). […]

human erythrocytes = test: Haemolytic activity; type: cell-based; settings: 37 °C, 30 min; for haemolysis rate: human erythrocytes, relative to 0.1% Triton X-100
Method: Haemolytic activity of the peptides was assayed by a standard procedure with slight modification. Fresh human erythrocytes were washed three times and resuspended at 1.25% haematocrit in PBS. Forty microlitres PBS-diluted peptide solution was added to a V-bottom 96-well plate (Corning Inc., Lowell, MA, USA), and 160 μl of erythrocytes was added. After incubation at 37 °C for 30 min, the samples were centrifuged, and the absorbance of the supernatant was measured at 450 nm using a multi-well microplate reader (SpectraMax M5; Molecular Devices, Sunnyvale, CA, USA) and compared with the 100% haemolysis caused by 0.1% Triton X-100. The percentage of haemolysis was calculated according to the equation (2): […]

[7] = system: L929 mouse fibroblast cells; test: Cytotoxicity, MTT assay; type: cell-based; settings: 1 hour
Method: The toxicity of the peptides against L929 mouse fibroblast cells was assessed by a standard MTT assay. L929 mouse fibroblast cells from ATCC (Manassas, VA, USA) were maintained in our laboratory. L929 cells were cultured in RPMI 1640 supplemented with 10% (v/v) FBS, 2 mM L-glutamine, 100 U/ml penicillin and […] streptomycin and maintained in a humidified incubator with 5% CO2 at 37 °C. L929 cells (5 × 10^3cells/well) were seeded in 96-well plates (Corning Inc., Lowell, MA, USA) and incubated overnight. Diluted peptides were added to L929 cells and incubated for 1 hour. Then, 20 μl of MTT (5 mg/ml) solution was added and incubated for 4 hours. The medium was removed, and 150 μl of DMSO was added to each well to dissolve the formazan crystals. The absorbance was measured at 490 nm on a microplate reader (SpectraMax M5; Molecular Devices, Sunnyvale, CA, USA). Cell viabilities were calculated by using the equation (3): […]

Gram-positive bacteria = type: cell-based, S. aureus, S. epidermidis, B. subtilis; settings: ratio of MHC to GM, Gram-positive bacteria
Method: as §2, §3, §1

Substance | MIC S. aureus [1] | MIC K. pneumoniae [2] | MIC B. subtilis [3] | MIC E. coli [4] | MIC S. epidermidis [5] | MIC P. aeruginosa [6] | TI, therapeutic index (Gram-negative bacteria) | MIC Acinetobacter baumannii (Acinetobacter baumannii) | haemolysis rate (human erythrocytes; 3.13 μM peptide) | MHC, minimum haemolytic concentration (human erythrocytes; concentration causing 10% haemolysis of hRBC, 200 μM used when no haemolysis detectable at 100 μM) | viability of treated L929 cells ([7]; 6.25 μM peptide) | TI, therapeutic index (Gram-positive bacteria) | haemolysis rate (human erythrocytes; 100 μM peptide) | viability of treated L929 cells ([7]; 50 μM peptide)
AIGSILGALAKGLPTLISWIKNR-NH2 [AR-23, reference compound] | 6.25 µM | 12.5 µM | 3.13 µM | 25 µM | 3.13 µM | 12.5 µM | 0.2 | 12.5 µM | 37.9% | 3.13 µM | approximately 10% | 0.79 | – | –
RIGSILGRLAKGLPTLKSWIKNR-NH2 [A(A1R, A8R, I17K)] | 100 µM | 12.5 µM | 12.5 µM | 12.5 µM | 6.25 µM | 12.5 µM | 16 | 12.5 µM | – | – | – | 10.08 | 4.4% | 31.4%
